Experimental data from paper PMC4030805 (Analytical Chemistry, 2014).

Target: biotinylated Bcl-xL immobilized on streptavidin magnetic beads (Homo sapiens, UniProt Q07817)
Test: AMMP target-binding assay with in vitro translated peptides
Details: concentration taken from the HA tag competition assay (Figure 3c)

Chain of biotinylated Bcl-xL immobilized on streptavidin magnetic beads (Q07817 1-209 limits assumed): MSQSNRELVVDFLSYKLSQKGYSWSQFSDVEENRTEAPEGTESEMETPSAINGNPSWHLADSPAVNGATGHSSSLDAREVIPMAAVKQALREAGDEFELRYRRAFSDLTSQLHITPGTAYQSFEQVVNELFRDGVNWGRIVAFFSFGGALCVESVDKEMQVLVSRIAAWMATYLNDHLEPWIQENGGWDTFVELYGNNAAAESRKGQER

Substance: H-MIETITIYKYKKAADHFSMSMGSGSGSYPYDVPDYA-NH2 [Pep1]
- peptide concentration giving robust signal over background: 100 pM
